Data reported in US10093660B2, “Sulfoximine substituted quinazolines for pharmaceutical compositions” (EVOTEC INTERNATIONAL GMBH, priority 2013, dated 2018).

Assays:
[1] = target: MNK2a (Homo sapiens (Human), UniProt Q9HBH9); assay: MNK2a in vitro kinase assay (Assay 2), ADP-Glo; assay type: biochemical; details: assay 2; read-out: MNK2 IC50
Description: B. MNK2a In Vitro Kinase Assay (Assay 2)

[2] = target: MNK1a (Homo sapiens (Human), UniProt Q9BUB5); assay: MNK1 in vitro kinase assay (Assay 3), Z'-LYTE; assay type: biochemical; details: for inhibition at 1 µM: compound concentration of 1 μM, read-out: MNK1 % INH
MNK1a, sequence (Q9BUB5 other isoform, or with tags, fused parts or gaps): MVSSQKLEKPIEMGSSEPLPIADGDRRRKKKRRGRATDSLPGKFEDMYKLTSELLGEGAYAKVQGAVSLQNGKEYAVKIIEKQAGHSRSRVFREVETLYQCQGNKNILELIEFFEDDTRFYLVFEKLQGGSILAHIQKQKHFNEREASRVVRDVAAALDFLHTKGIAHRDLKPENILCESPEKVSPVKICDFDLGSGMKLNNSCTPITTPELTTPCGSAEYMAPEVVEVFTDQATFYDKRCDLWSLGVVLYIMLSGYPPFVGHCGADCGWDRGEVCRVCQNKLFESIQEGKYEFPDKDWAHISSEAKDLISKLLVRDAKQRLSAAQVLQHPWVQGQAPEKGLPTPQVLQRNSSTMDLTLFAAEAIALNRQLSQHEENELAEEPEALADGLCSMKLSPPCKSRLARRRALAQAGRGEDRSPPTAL

MNK2a, sequence (Q9HBH9 whole entry): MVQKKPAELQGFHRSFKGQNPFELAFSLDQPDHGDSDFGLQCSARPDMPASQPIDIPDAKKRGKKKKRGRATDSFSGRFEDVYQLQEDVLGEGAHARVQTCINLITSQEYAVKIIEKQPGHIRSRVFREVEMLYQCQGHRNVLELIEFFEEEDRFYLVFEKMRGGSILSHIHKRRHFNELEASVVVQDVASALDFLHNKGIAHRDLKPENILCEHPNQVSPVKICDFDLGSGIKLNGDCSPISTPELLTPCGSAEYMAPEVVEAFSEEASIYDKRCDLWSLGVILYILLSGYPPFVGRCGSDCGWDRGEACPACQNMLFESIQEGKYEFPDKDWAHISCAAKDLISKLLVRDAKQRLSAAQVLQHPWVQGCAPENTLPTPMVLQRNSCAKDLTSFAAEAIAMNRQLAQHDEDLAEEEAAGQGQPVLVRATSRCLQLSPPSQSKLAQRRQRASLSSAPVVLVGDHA

SMILES	IC50 [1] [nM]	inhibition at 1 µM [2] [%]	IC50 [2] [nM]
CC[S@](C)(=O)=Nc1cc(C)c2c(Nc3ccc(F)cc3O[C@H]3COC[C@@H]3O)ncnc2c1 (single isomer, unassigned) [Example 14.11]	4	96	
Cc1cc(N=S2(=O)CCC2)cc2ncnc(Nc3ccc(Cl)nc3O[C@@H]3COC[C@H]3O)c12 [Example 2.53]	4	83	
Cc1cc(N=S2(=O)CCCC2)cc2ncnc(Nc3ccc(F)cc3O[C@H]3COC[C@H]3C#N)c12 [Example 1.1]	9		104
CS(C)(=O)=Nc1cc(OCCF)c2c(Nc3ccc(F)cc3O[C@H]3COC[C@@H]3O)ncnc2c1 [Example 9.8]	39	75	
CO[C@@H]1CN(S(C)(=O)=O)C[C@H]1Oc1ncccc1Nc1ncnc2cc(N=S(C)(C)=O)cc(C)c12 [Example 6.6]	80		1400
Cc1cc(N=S2(=O)CCC(C)C2)cc2ncnc(Nc3ccc(F)cc3O[C@H]3COC[C@@H]3O)c12 (stereo partly drawn) [Example 2.85]	3	97	
Cc1cc(N=S(C)(=O)C(C)C)cc2ncnc(Nc3ccc(F)cc3O[C@H]3COC[C@@H]3O)c12 (stereo partly drawn) [Example 2.74]	7	91	
CS(C)(=O)=Nc1cc(Cl)c2c(Nc3ccc(Cl)nc3O[C@H]3COC[C@@H]3O)ncnc2c1 [Example 1.19]	4	99	
Cc1cc(N=S(C)(C)=O)cc2ncnc(Nc3ccc(F)cc3O[C@H]3COC[C@H]3OC3COC3)c12 (racemic) [Example 7.3]	7	93	
Cc1cc(N=S(C)(C)=O)cc2ncnc(Nc3ccc(F)cc3O[C@H]3CN(S(C)(=O)=O)C[C@@H]3O)c12 [Example 2.59]	4	99	
Cc1cc(N=S2(=O)CCCC2)cc2ncnc(Nc3ccc(F)cc3O[C@H]3COC[C@@H]3O)c12 [Example 2.29]	2	104	40
COc1cc(N=S2(=O)CCC2)cc2ncnc(Nc3cccnc3O[C@H]3COC[C@H]3O)c12 (racemic) [Example 8.4]	11		104
Cc1cc(N=S(C)(C)=O)cc2ncnc(Nc3ccc(F)cc3O[C@@H]3CN(S(C)(=O)=O)C[C@H]3O)c12 [Example 2.11]	14	79	
CO[C@@H]1CN(CC(F)F)C[C@H]1Oc1ncccc1Nc1ncnc2cc(N=S3(=O)CCCC3)cc(C)c12 [Example 5.5]	13	85	
CO[C@H]1COC[C@H]1Oc1ncccc1Nc1ncnc2cc(N=S3(=O)CCCC3)cc(C)c12 (single isomer, unassigned) [Example 14.1]	1	97	
Cc1cc(N=S(C)(=O)c2cccnc2)cc2ncnc(Nc3ccc(F)cc3O[C@H]3COC[C@@H]3O)c12 (stereo partly drawn) [Example 2.81]	14	91	
COc1cc(N=S(C)(=O)c2cccnc2)cc2ncnc(Nc3ccc(F)cc3O[C@H]3COC[C@@H]3O)c12 (stereo partly drawn) [Example 9.14]	13	84	
CO[C@@H]1CNC[C@H]1Oc1cc(F)ccc1Nc1ncnc2cc(N=S3(=O)CCCC3)cc(C)c12 [Example 4.2]	8	87	
CCS(C)(=O)=Nc1cc(C)c2c(Nc3ccc(F)cc3O[C@H]3COC[C@@H]3O)ncnc2c1 (stereo partly drawn) [Example 2.37]	4	93	

SMILES	IC50 [1] [nM]	inhibition at 1 µM [2] [%]	IC50 [2] [nM]
Cc1cc(N=S(C)(=O)C(C)(C)C)cc2ncnc(Nc3ccc(F)cc3O[C@H]3COC[C@@H]3O)c12 (stereo partly drawn) [Example 2.79]	10	85	
Cc1cc(N=S2(=O)CCCC2)cc2ncnc(Nc3ccc(Cl)cc3O[C@H]3COC[C@@H]3O)c12 [Example 1.27]	3		33
Cc1cc(N=S2(=O)CCCC2)cc2ncnc(Nc3cccnc3O[C@H]3COC[C@H]3OCCF)c12 (racemic) [Example 2.25]	2		46
Cc1cc(N=S2(=O)CCCC2)cc2ncnc(Nc3ccc(F)cc3O[C@H]3CN(S(C)(=O)=O)C[C@@H]3O)c12 [Example 2.60]	3		37
COc1cc(N=S(C)(C)=O)cc2ncnc(Nc3ccc(F)cc3O[C@H]3COC[C@H]3O)c12 (racemic) [Example 9.3]	26	90	
Cc1cc(N=S2(=O)CCCC2)cc2ncnc(Nc3ccc(F)cc3O[C@@H]3COC[C@@H]3OCc3ccccc3)c12 [Example 13.3]	15	79	
CC(=O)N1C[C@@H](O)[C@H](Oc2ncccc2Nc2ncnc3cc(N=S(C)(C)=O)cc(C)c23)C1 [Example 2.21]	179	57	
CO[C@@H]1CN(S(C)(=O)=O)C[C@H]1Oc1cc(F)ccc1Nc1ncnc2cc(N=S(C)(C)=O)cc(C)c12 [Example 6.7]	62	35	
Cc1cc(N=S2(=O)CCC2)cc2ncnc(Nc3ccc(Cl)nc3O[C@H]3COC[C@@H]3O)c12 [Example 2.43]	3	100	
COc1cc(N=S2(=O)CCCC2)cc2ncnc(Nc3cccnc3O[C@H]3COC[C@@H]3O)c12 [Example 8.3]	6	97	
Cc1cc(N=S(C)(=O)c2cccnc2)cc2ncnc(Nc3ccc(F)cc3O[C@@H]3COC[C@@H]3O)c12 (mixture of isomers) [Example 2.70]	10	92	
Cc1cc(N=S2(=O)CCCC2)cc2ncnc(Nc3ccc(F)cc3O[C@H]3COC[C@H]3O)c12 (racemic) [Example 2.8]	2	100	
Cc1cc(N=S(C)(C)=O)cc2ncnc(Nc3ccc(Cl)nc3O[C@H]3COC[C@@H]3O)c12 [Example 2.40]	6	96	
CS(C)(=O)=Nc1cc(F)c2c(Nc3ccc(F)cc3O[C@H]3COC[C@H]3O)ncnc2c1 (racemic) [Example 2.52]	15	97	
O=S1(=Nc2cc(C(F)(F)F)c3c(Nc4ccc(F)cc4O[C@H]4COC[C@@H]4O)ncnc3c2)CCCC1 [Example 1.28]	4	96	
O=S1(=Nc2cc(Cl)c3c(Nc4ccc(Cl)nc4O[C@H]4COC[C@@H]4O)ncnc3c2)CCC1 [Example 1.16]	2	96	
O=S1(=Nc2cc(Cl)c3c(Nc4cccnc4O[C@H]4COC[C@@H]4O)ncnc3c2)CCCC1 [Example 1.15]	3	103	34
CC[S@@](C)(=O)=Nc1cc(C)c2c(Nc3ccc(F)cc3O[C@H]3COC[C@@H]3O)ncnc2c1 (single isomer, unassigned) [Example 14.12]	15	86	
Cc1cc(N=S2(=O)CCCC2)cc2ncnc(Nc3ccc(F)cc3O[C@@H]3CN(C)C[C@H]3O)c12 [Example 2.5]	17	85	

SMILES	IC50 [1] [nM]	inhibition at 1 µM [2] [%]	IC50 [2] [nM]
Cc1cc(N=S2(=O)CCC2)cc2ncnc(Nc3ccc(Cl)cc3O[C@@H]3COC[C@H]3O)c12 [Example 1.30]	3	93	
O=S1(=Nc2cc(Cl)c3c(Nc4cccnc4O[C@H]4COC[C@@H]4O)ncnc3c2)CCC1 [Example 1.13]	4	100	
CO[C@@H]1CN(C(=O)OCc2ccccc2)C[C@H]1Oc1ncccc1Nc1ncnc2cc(N=S3(=O)CCCC3)cc(C)c12 [Example 2.16]	82	55	
Cc1cc(N=S(C)(C)=O)cc2ncnc(Nc3ccc(F)cc3O[C@H]3COC[C@H]3OCC(F)F)c12 (racemic) [Example 10.3]	3		41
CS(C)(=O)=Nc1cc(Cl)c2c(Nc3cccnc3O[C@H]3COC[C@@H]3O)ncnc2c1 [Example 1.14]	5	96	
O=S1(=Nc2cc(Cl)c3c(Nc4ccc(F)cc4O[C@H]4COC[C@H]4O)ncnc3c2)CCCC1 (racemic) [Example 1.5]	2	88	
Cc1cc(N=S(C)(C)=O)cc2ncnc(Nc3ccc(Cl)nc3O[C@@H]3COC[C@H]3O)c12 [Example 2.48]	7	90	
Cc1cc(N=S2(=O)CCCC2)cc2ncnc(Nc3ccc(Cl)nc3O[C@@H]3COC[C@H]3O)c12 [Example 2.54]	3		66
COc1cc(N=S2(=O)CCCC2)cc2ncnc(Nc3ccc(F)cc3O[C@H]3COC[C@H]3O)c12 (racemic) [Example 9.13]	6	99	
Cc1cc(N=S(C)(=O)C(C)(C)C)cc2ncnc(Nc3ccc(F)cc3O[C@@H]3COC[C@@H]3O)c12 (mixture of isomers) [Example 2.68]	11	94	
COc1cc(N=S2(=O)CCCC2)cc2ncnc(Nc3ccc(Cl)nc3O[C@H]3COC[C@@H]3O)c12 [Example 8.1]	3	97	
Cc1cc(N=S2(=O)CCCC2)cc2ncnc(Nc3cccnc3O[C@@H]3CN(S(C)(=O)=O)C[C@H]3O)c12 [Example 2.22]	7	86	
Cc1cc(N=S(C)(C)=O)cc2ncnc(Nc3ccc(F)cc3O[C@@H]3CN(C)C[C@H]3O)c12 [Example 2.6]	91	63	
CS(C)(=O)=Nc1cc(F)c2c(Nc3ccc(Cl)nc3O[C@H]3COC[C@@H]3O)ncnc2c1 [Example 1.21]	7	93	
CO[C@@H]1CN(C(=O)OCc2ccccc2)C[C@H]1Oc1ncccc1Nc1ncnc2cc(N=S(C)(C)=O)cc(C)c12 [Example 2.17]	21	18	
O=S1(=Nc2cc(F)c3c(Nc4ccc(Cl)nc4O[C@H]4COC[C@@H]4O)ncnc3c2)CCC1 [Example 1.24]	3	91	
Cc1cc(N=S2(=O)CCCC2)cc2ncnc(Nc3ccc(Cl)nc3O[C@H]3COC[C@@H]3O)c12 [Example 2.42]	4		39
Cc1cc(N=S2(=O)CCCC2)cc2ncnc(Nc3ccc(F)cc3O[C@@H]3CN(S(C)(=O)=O)C[C@H]3O)c12 [Example 2.12]	3		94
